Assay results from patent US12636299B2, “Terpenoid derivatives, pharmaceutical preparations containing these derivatives and their use in neuroprotection” (UNIVERZITA PALACKEHO V OLOMOUCI, priority 2020, dated 2026).

Legend:
[1] = tested on: SH-SY5Y human neuroblastoma cell line; assay: Cytotoxicity, Calcein AM viability assay on neuron-like SH-SY5Y cells; format: cell-based
Procedure: The SH-SY5Y human neuroblastoma cell line obtained from ECACC (The European Collection of Authenticated Cell Cultures) was cultivated in Dulbecco's modified Eagle's Medium and Ham's F12 Nutrient Mixture (DMEM:F-12, 1:1), supplemented with 10% fetal bovine serum (FBS) and 1% penicillin and streptomycin at 37° C. in a humidified atmosphere 5% CO2, 95% humidity in passage limit up to ECACC+20. The assay was performed in 96-well microplate with 7000 SH-SY5Y cells per well. After 48 h, old DMEM/F12 media was removed by fresh media containing tested compounds at 0.1, 1 and 10 μM concentrations for 24 h. Glial cell line A-172 purchased from ATCC and grown in same conditions as SH-SY5Y cell line. A-172 cells were seeded in density 2000 cells per well and growing medium was replaced by treatment medium containing tested compounds in 0.1, 1 and 10 μM concentration; or in higher concentrations for R-LA or NAC positive controls for 48 hours. All tested compounds dissolved in DMSO were added into the medium. The maximum concentration of DMSO in media was kept below 0.1% (v/v). The cell viability was measured by Calcein AM (1 mg/ml ThermoFisher) viability assay. Solution of Calcein AM in PBS (0.75 μM) was pipetted to cells and incubated for 50 min. After that the fluorescence was measured at 488/517 nm (excitation/emission) using microplate reader Infinite M200 (TECAN). Calcein AM assay is based on the dye-intracellular-esterase cleavage of non-fluorescent dye (Calcein AM) by living cells to fluorescent dye (Calcein), while dying cells lose such ability. The values in Table 2 show the % of viability compared to control for all tested compounds. The results from DMSO control (medium with DMSO, <0.1% (v/v)) was postulated as 100% viability (see the first line of Table 2).

[2] = tested on: glial A-172 cells; assay: Cytotoxicity, Calcein AM viability assay on glial A-172 cells; format: cell-based, human; conditions: NAC at 1000 μM
Procedure: The assay was performed in 96-well microplate with 7000 SH-SY5Y cells per well. After 48 h, old DMEM/F12 media was removed by fresh media containing tested compounds at 0.1, 1 and 10 μM concentrations for 24 h. Glial cell line A-172 purchased from ATCC and grown in same conditions as SH-SY5Y cell line. […] All tested compounds dissolved in DMSO were added into the medium. The maximum concentration of DMSO in media was kept below 0.1% (v/v). The cell viability was measured by Calcein AM (1 mg/ml ThermoFisher) viability assay. Solution of Calcein AM in PBS (0.75 μM) was pipetted to cells and incubated for 50 min. After that the fluorescence was measured at 488/517 nm (excitation/emission) using microplate reader Infinite M200 (TECAN). Calcein AM assay is based on the dye-intracellular-esterase cleavage of non-fluorescent dye (Calcein AM) by living cells to fluorescent dye (Calcein), while dying cells lose such ability.

[3] = tested on: human neuroblastoma cell line SH-SY5Y; assay: Viability of differentiated SH-SY5Y in salsolinol-induced model of PD (Calcein AM); format: cell-based; conditions: for Neuroprotective effect (% of control): difference between 800 μM SAL and co-treatment group means, 24 hours
Procedure: Similarly, as in previous “Safety test”, the SH-SY5Y cells were seeded at density 7000 cells/well. After 48 h differentiation, old 1% DMEM/F12 media was replaced by fresh media containing 800 μM salsolinol (SAL) and tested compounds in 0.1, 1 and 10 μM concentrations. N-acetylcystein were chosen as positive control. After 24 hours, the cell viability was measured by Calcein AM viability assay. The values in Table 2 show % of viability of all tested compounds relative to control. The control (medium with DMSO, <0.1% (v/v)) was postulated as 100% viability (see the first line of the table), while the SAL exposure lead to decrease of viability to 65.4±0.97%.

[4] = tested on: caspase-3,7 activity; assay: Caspase-3,7 activity in salsolinol-induced model of PD on SH-SY5Y (Ac-DEVD-AMC); format: cell-based, human
Procedure: Similarly, as shown in previous assay, cells grew on 96 multiwell plates at density 20000 cells per well underwent differentiation and treatment procedure for salsolinol model. After 24 hour co-treatment with salsolinol, caspase-3,7 (casp-3,7) activity as marker of apoptosis was quantified by its substrate Ac-DEVD-AMC according to Carrasco et al. (2003, BioTechniques, 34, 1064-1067). In this model, overall casp-3,7 activity induced by 800 μM SAL was consider as 100% and thus the reduction in casp-3,7 was observed after treatment with the protective terpenoid derivatives. As shown in Table 4 and FIG. 2, 800 μM SAL induced 2.9-fold increase.

[5] = tested on: human neuron-like SH-SY5Y cells; assay: 3NPA-induced model of Huntington's disease, neuron-like SH-SY5Y cells; format: cell-based; conditions: difference to 20 mM 3NPA, 48 h
Procedure: (§1) Before application of toxin 3-nitropropionic acid (3NPA) for mimicking Huntington's disease, the 3NPA was dissolved in water and neutralized by sodium hydroxide. SH-SY5Y cells were seeded in the same density and differentiated by the procedure shown above. Astrocyte cells A-172 were also seeded as described in previous section. Both cell lines were co-treated by 3NPA (20 mM for SH-SY5Y cells, […]) and tested compounds at 0.1, 1 and 10 μM concentration for 48 h.

[6] = tested on: astrocyte A-172 cells; assay: 3NPA-induced model of Huntington's disease, astrocyte A-172 cells; format: cell-based, human; conditions: difference to 10 mM 3NPA, 48 h
Procedure: as §1

[7] = tested on: superoxide radical formation; assay: Oxidative stress (superoxide radical formation, DHE) in 3NPA-induced model on SH-SY5Y; format: cell-based, human; conditions: 20 mM 3NPA = 100%, 24 hours
Procedure: Similarly, to previous assay, cells grown on 96-multiwell plates at density 20000 cells per well underwent differentiation and treatment procedure with 3-nitropropionic acid (3NPA) in this model. After 24 hours of co-treatment with 20 mM 3NPA, superoxide radical's formation as a marker of oxidative stress was quantified by dihydroethidium according to Kim et al. (2017, J. Med. Food, 20, 140-151). Briefly, neuron-like SH-SY5Y cells were centrifuged at 500 g for 5 min and 30 s, then media were replaced by 10 μM DHE PBS solution and kept at room temperature for 30 min. After that, DHE was read at 500 nm/580 nm (excitation/emission) by Infinite M200 Pro (Tecan) microplate reader. DHE is cell permeable dye which is selective for superoxide radical detection. Overall oxidative stress achieved by 20 mM 3NPA was consider as 100% and thus the reduction in superoxide radical's formation (OS reducing effect) was determined. As shown in Table 6 and FIG. 2, 20 mM 3NPA induced 2.7-fold increase in superoxide radical's formation.

[8] = tested on: glial A-172 cells; assay: Cytotoxicity, Calcein AM viability assay on glial A-172 cells; format: cell-based, human; conditions: 48 hours
[9] = tested on: human neuron-like SH-SY5Y cells; assay: 3NPA-induced model of Huntington's disease, neuron-like SH-SY5Y cells; format: cell-based; conditions: difference to 20 mM 3NPA, 48 h; remark: listed apart in the source

`C=C(C(=O)OCc1cccnc1)C1CCC2(COC(C)=O)CCC3(C)C(CCC4C5(C)CCC(OC(C)=O)C(C)(C)C5CCC43C)C12` (stereo not drawn) [Compound 4, Pyridin-3-yl-methyl (3β)-3,28-bis(acetyloxy)lup-20(30)-en-29-oate] was tested, and the “viability, percentage of DMSO control” value ([1]; 0.1 μM, 24 h) was 99.9%, the “viability, percentage of DMSO control” value ([1]; 1 μM, 24 h) was 146.1% and the “viability, percentage of DMSO control” value ([1]; 10 μM, 24 h) was 142.5%. The “effect on viability of astrocytes, in words” value [2] was “slight decrease in percentage of living cells”, the “Neuroprotective effect (% of control)” value ([3]; 0.1 μM) was “N/A (N/A = no protection)” and the “Neuroprotective effect (% of control)” value ([3]; 1 μM) was 33.70 % of control. For the same molecule, the “Neuroprotective effect (% of control)” value ([3]; 10 μM) was 33.99 % of control, the “effect on SH-SY5Y viability in salsolinol model, in words” value ([3]; 800 μM salsolinol, comparison with NAC) was “better effect than 1000 μM NAC” and the “Caspase-3,7 activity (% of 800 μM SAL control)” value ([4]; 1 μM, percentages of control (800 μM SAL = 100), 24 hour co-treatment) was 67.2%. The “Caspase-3,7 activity (% of 800 μM SAL control)” value ([4]; 10 μM, percentages of control (800 μM SAL = 100), 24 hour co-treatment) was 46.0%, the “reduction of caspase-3,7 activity, in words” value ([4]; 800 μM SAL, compounds 3 and 4 at 10 μM compared with NAC) was “better” and the “efficacy relative to positive controls (by used concentration)” value ([4]; caspase-3,7 activity, salsolinol model) was 10 fold. The “Neuro-protective effect (% of control)” value ([5]; 0.1 μM) was “N/A (N/A = no protection)”, the “Neuro-protective effect (% of control)” value ([5]; 1 μM) was 32.36 % of control and the “Neuro-protective effect (% of control)” value ([5]; 10 μM) was 28.98 % of control. For the same molecule, the “Astro-protective effect (% of control)” value ([6]; A-172, 0.1 μM) was 7.38 % of control, the “Astro-protective effect (% of control)” value ([6]; A-172, 1 μM) was 3.25 % of control and the “Astro-protective effect (% of control)” value ([6]; A-172, 10 μM) was “N/A (N/A = no protection)”. The “Superoxide radical formation (oxidative stress) %” value ([7]; 0.1 μM) was 84.7%, the “Superoxide radical formation (oxidative stress) %” value ([7]; 1 μM) was 78.5% and the “Superoxide radical formation (oxidative stress) %” value ([7]; 10 μM) was 65.8%. The “viability, percentage of DMSO control” value ([8]; 0.1 μM) was 104.2%, the “viability, percentage of DMSO control” value ([8]; 1 μM) was 97.9% and the “viability, percentage of DMSO control” value ([8]; 10 μM) was 83.6%.
`CC(=O)N[C@@H](CS)C(=O)O` [NAC, N-acetyl cysteine, reference compound] was tested, and the “viability, percentage of DMSO control” value ([1]; 10 μM (NAC)) was 92.7%, the “viability, percentage of DMSO control” value ([1]; 100 μM (NAC)) was 97.5% and the “viability, percentage of DMSO control” value ([1]; 1000 μM (NAC)) was 101.5%. For the same molecule, the “effect on viability of astrocytes, in words” value [2] was “slight decrease in percentage of living cells”, the “Neuroprotective effect (% of control)” value ([3]; 10 μM (NAC)) was “N/A (N/A = no protection)” and the “Neuroprotective effect (% of control)” value ([3]; 100 μM (NAC)) was “N/A (N/A = no protection)”. For the same molecule, the “Neuroprotective effect (% of control)” value ([3]; 1000 μM (NAC)) was 16.15 % of control, the activity at 100 µM ([4]; Homo sapiens, SH-SY5Y, 100 μM (NAC), percentages of control (800 μM SAL = 100), 24 hour co-treatment, read-out: Caspase-3,7 activity (% of reduction)) was 60.4% and the activity at 1000 µM ([4]; Homo sapiens, SH-SY5Y, 1000 μM (NAC), percentages of control (800 μM SAL = 100), 24 hour co-treatment, read-out: Caspase-3,7 activity (% of reduction)) was 55.2%. For the same molecule, the “Neuro-protective effect (% of control)” value ([5]; 10 μM (NAC)) was “N/A (N/A = no protection)”, the “Astro-protective effect (% of control)” value ([6]; A-172, column head 0.5 μM (positive controls)) was “N/A (N/A = no protection)” and the “Astro-protective effect (% of control)” value ([6]; A-172, column head 5 μM (positive controls)) was “N/A (N/A = no protection)”. For the same molecule, the “Astro-protective effect (% of control)” value ([6]; A-172, column head 50 μM (positive controls)) was “N/A (N/A = no protection)”, the “Superoxide radical formation (oxidative stress) %” value ([7]; 10 μM (NAC)) was 79.6% and the “Superoxide radical formation (oxidative stress) %” value ([7]; 100 μM (NAC)) was 79.7%. The “Superoxide radical formation (oxidative stress) %” value ([7]; 1000 μM (NAC)) was 48.5%, the “viability, percentage of DMSO control” value ([8]; 10 μM (NAC)) was 102.9% and the “viability, percentage of DMSO control” value ([8]; 100 μM (NAC)) was 96.6%. The “viability, percentage of DMSO control” value ([8]; 1000 μM (NAC)) was 83.0%, the “Neuro-protective effect (% of control)” value ([9]; 100 μM (NAC)) was 51.35 % of control and the “Neuro-protective effect (% of control)” value ([9]; 1000 μM (NAC)) was 65.72 % of control.
